# Active and inactive are the calls of the source. No cut-off for these calls is given here.
# Tests used:
# [1] = biological target: T1, Histone-lysine N-methyltransferase EHMT2 (Homo sapiens) (UniProt Q96KQ7); assay: Inhibition of wild type recombinant human histone lysine methyltransferase G9a (913 to 1193 residues) expressed in Escherichia coli Rosetta BL21 DE3 PlysS assessed as zinc ions ejection from Cys4-Zn finger at >50 uM after 1 hr by circular dichroism analysis
# T1 sequence (whole entry): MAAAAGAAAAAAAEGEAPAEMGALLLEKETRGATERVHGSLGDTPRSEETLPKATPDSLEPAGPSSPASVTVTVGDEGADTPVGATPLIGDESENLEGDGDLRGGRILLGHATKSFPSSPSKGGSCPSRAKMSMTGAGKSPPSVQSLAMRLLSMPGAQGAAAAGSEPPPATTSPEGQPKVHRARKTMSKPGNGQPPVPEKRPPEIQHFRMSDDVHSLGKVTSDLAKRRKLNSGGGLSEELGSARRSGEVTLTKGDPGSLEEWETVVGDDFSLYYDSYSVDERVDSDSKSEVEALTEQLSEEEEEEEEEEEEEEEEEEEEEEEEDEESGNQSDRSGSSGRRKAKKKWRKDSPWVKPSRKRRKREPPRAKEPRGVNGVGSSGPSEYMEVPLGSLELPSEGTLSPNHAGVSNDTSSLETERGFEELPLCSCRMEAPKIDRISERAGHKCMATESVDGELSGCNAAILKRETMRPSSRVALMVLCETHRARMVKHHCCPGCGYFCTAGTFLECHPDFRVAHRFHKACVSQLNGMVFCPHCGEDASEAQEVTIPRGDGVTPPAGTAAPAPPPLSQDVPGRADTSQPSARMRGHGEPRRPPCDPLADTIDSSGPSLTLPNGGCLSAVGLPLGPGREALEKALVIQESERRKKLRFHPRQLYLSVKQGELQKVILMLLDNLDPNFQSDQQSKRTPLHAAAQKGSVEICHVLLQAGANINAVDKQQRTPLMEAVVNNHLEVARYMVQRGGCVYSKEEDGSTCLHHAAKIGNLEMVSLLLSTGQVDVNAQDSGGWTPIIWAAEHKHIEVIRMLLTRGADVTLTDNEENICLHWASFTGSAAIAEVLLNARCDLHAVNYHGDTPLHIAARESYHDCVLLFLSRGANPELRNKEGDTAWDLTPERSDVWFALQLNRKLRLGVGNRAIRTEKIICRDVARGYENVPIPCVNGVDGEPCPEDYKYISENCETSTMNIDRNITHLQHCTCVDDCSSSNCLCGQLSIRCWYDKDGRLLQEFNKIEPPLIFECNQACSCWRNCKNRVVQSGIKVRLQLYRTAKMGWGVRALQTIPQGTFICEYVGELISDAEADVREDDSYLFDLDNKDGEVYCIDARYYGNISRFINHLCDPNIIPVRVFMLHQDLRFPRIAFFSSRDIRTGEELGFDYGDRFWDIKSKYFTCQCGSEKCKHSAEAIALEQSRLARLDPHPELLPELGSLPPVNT
# [2] = biological target: T2, Histone-lysine N-methyltransferase EHMT1 (Homo sapiens) (UniProt Q9H9B1); assay: Inhibition of wild type recombinant human histone lysine methyltransferase GLP (951 to 1235 residues) expressed in Escherichia coli Rosetta BL21 DE3 PlysS assessed as zinc ions ejection from Cys4-Zn finger at >50 uM after 1 hr by circular dichroism analysis
# T2 sequence (whole entry): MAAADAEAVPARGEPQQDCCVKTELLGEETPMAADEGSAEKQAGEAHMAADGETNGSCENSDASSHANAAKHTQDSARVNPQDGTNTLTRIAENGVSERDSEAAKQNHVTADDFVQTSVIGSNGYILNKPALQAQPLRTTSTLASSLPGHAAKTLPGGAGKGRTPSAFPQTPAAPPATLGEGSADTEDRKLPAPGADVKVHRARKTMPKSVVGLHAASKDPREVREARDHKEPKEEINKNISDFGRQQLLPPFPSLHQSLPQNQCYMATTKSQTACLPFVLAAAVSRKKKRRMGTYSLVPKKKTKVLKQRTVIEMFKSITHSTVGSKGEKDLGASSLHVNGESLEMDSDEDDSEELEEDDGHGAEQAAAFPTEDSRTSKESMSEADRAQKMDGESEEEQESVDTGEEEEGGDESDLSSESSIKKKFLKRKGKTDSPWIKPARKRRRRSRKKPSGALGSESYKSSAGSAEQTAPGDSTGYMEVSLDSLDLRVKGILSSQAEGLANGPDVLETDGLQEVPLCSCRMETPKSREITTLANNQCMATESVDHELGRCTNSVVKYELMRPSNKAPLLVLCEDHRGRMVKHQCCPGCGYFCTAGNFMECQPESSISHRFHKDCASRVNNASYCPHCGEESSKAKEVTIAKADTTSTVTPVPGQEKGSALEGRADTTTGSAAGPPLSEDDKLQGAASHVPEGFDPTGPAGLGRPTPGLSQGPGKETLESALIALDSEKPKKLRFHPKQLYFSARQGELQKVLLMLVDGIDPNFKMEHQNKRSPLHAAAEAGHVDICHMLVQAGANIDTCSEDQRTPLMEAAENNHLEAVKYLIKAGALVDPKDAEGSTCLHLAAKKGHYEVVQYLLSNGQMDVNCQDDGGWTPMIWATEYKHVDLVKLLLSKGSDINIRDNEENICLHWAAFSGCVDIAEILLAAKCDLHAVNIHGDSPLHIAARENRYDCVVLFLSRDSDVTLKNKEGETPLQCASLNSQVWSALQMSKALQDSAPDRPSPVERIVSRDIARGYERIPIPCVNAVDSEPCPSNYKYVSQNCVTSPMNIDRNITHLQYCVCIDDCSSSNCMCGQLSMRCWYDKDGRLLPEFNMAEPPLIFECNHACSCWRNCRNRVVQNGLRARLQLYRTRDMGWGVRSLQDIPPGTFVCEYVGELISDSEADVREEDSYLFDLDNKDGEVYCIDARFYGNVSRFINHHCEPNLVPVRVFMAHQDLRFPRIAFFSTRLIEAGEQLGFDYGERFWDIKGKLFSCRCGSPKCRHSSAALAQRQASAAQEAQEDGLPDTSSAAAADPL
# [3] = biological target: T1, Histone-lysine N-methyltransferase EHMT2 (Homo sapiens); assay: Inhibition of wild type recombinant human histone lysine methyltransferase G9a (913 to 1193 residues) expressed in Escherichia coli Rosetta BL21 DE3 PlysS assessed as zinc ions ejection from 3 types of Cys9-type Zn fingers at >50 uM after 1 hr by circular dichroism analysis
# [4] = biological target: T1, Histone-lysine N-methyltransferase EHMT2 (Homo sapiens); assay: Inhibition of wild type recombinant human histone lysine methyltransferase G9a (913 to 1193 residues) expressed in Escherichia coli Rosetta BL21 DE3 PlysS assessed as zinc ions ejection from Cys4-Zn finger at 2.5 to 100 uM measured up to 1 min by FluoZin-3 based fluorescence assay
# [5] = biological target: T1, Histone-lysine N-methyltransferase EHMT2 (Homo sapiens); assay: Inhibition of wild type recombinant human histone lysine methyltransferase G9a (913 to 1193 residues) expressed in Escherichia coli Rosetta BL21 DE3 PlysS assessed as zinc ions ejection from Cys4-Zn finger at >25 uM after 1 hr by circular dichroism analysis
Structure (SMILES),inhibition [1],inhibition [2],inhibition [3],inhibition [4],inhibition [5]
CCN(CC)C(=S)SSC(=S)N(CC)CC,Active,Active,Active,–,–
O=c1c2ccccc2[se]n1-c1ccccc1 [EBSELEN],–,–,–,Active,Active

# From ChEMBL document CHEMBL4184305, “Inhibition of histone lysine methyltransferases G9a and GLP by ejection of structural Zn(II)” (Bioorg Med Chem Lett, 2018)
